Data reported in patent US8647824B2, “Microbial reductive dehalogenation of vinyl chloride” (The Board of Trustees of the Leland Stanford Junior …, priority 2004, dated 2014).

Assays:
[1] = test system: Dehalococcoides ethenogenes strain 195; assay: Batch dechlorination, D. ethenogenes strain 195 culture; format: cell-based; details: cultures supplied with VC or DCE
From the text: Stock cultures. The Victoria mixed culture, containing strain VS, was maintained in a closed continuously stirred tank reactor (CSTR) as previously described. A VC enrichment of this culture, maintained over 5 years, was also used in these investigations. Liquid cultures of the three other cultures evaluated (Pinellas, KB-1/VC, and Dehalococcoides ethenogenes strain 195) were kept in anaerobic bottles, stored in an anaerobic chamber (10% H2, 10% CO2, 80% N2). The bottles were amended with TCE (1-3 μL neat liquid), VC (250 μL gas), and PCE (1-3 μL neat liquid) being added to each, respectively, approximately every two weeks.
Batch studies. For the experimental portion of this research, two studies were undertaken, one a comparative VC growth study, and the other a comparative growth and substrate utilization study with different chlorinated ethenes. These studies compared the dechlorination abilities of Dehalococcoides ethenogenes strain 195 and the Dehalococcoides-like microorganisms in the three mixed cultures (Victoria, KB-1/VC, and Pinellas).
For the first study, a VC enriched inoculum was first developed for each of the three mixed cultures. Here, bottles (120 mL) were filled with 60 mL of anaerobic media in an anaerobic chamber as previously described, and inoculated with 200 μL of each stock culture. Gaseous VC (99.5%) was added with a gas tight syringe (200 μL). […]

[2] = target: T1, TCE-reductive dehalogenase (TceA) (Dehalococcoides mccartyi, UniProt Q3ZAB8); details: TceA of D. ethenogenes 195; cited from earlier work
T1 sequence (Q3ZAB8 43-554): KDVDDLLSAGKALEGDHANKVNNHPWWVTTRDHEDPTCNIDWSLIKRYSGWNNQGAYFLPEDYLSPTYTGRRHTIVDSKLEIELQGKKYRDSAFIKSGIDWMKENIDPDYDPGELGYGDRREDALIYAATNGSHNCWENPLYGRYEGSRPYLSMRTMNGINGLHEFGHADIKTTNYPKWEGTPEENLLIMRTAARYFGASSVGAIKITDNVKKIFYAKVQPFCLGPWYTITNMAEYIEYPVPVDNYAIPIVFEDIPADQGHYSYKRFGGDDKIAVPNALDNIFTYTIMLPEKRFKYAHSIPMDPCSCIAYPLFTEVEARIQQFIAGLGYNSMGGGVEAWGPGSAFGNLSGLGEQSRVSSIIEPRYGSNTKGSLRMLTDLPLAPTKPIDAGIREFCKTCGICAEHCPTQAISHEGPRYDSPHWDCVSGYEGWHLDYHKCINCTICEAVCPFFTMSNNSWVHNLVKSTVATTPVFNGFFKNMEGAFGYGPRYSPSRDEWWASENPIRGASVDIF

C=CCl [VC, vinyl chloride]
dechlorination by D. ethenogenes strain 195 [1]: did not dechlorinate | VC-reduction rate relative to activity of TCE- and cDCE-reduction [2]: less than 1%
